Results: article PMC12040169 (PLOS Biology, 2025)

Assay: in vitro
Conditions: human, hela cells, % viability

| Compound | viability at 28.5 h, 10 µM [%] |
| --- | --- |
| CCC(C)(C)c1ccc(S(=O)(=O)N2CCCN(Cc3cccc4c3OCO4)CC2)cc1 [CBK062872] | 100 |
| COCC(=O)N[C@H]1CC(C)(C)[C@@H]2C[C@@](C)(O)CC[C@]12CCC(=O)N1CCCC1 [CBK289043] | 88.4 |
| CC(=O)c1ccc(-c2nc(NC(=O)CC3OC(=O)c4ccccc43)cnc2-c2cccc(C)c2)s1 (stereo not shown) [CBK037152] | 112 |
| CC(Oc1cccc(F)c1)C(=O)N(C)Cc1cccnc1 (stereo not shown) [CBK304841] | 95.5 |
| Cc1cccc(C)c1NC(=O)CC(C(=O)O)N(C)C (stereo not shown) [CBK267022] | 90.9 |
| CC(=O)N1CCc2c([nH]c3ccccc23)C12CCN(CCc1ccccc1)CC2 [CBK039757] | 78.8 |
| CN(C)CC(=O)N1CCc2nc(-c3ccccc3F)sc2C1 [CBK281918] | 85.6 |
| OC(COc1cccc(Oc2ccccc2)c1)CN1CCN(c2ccccc2F)CC1 (stereo not shown) [CBK267468] | 95.5 |
| O=C(O)CNC(=O)c1ccc(S(=O)(=O)N2CCCC2)cc1 [CBK267434] | 87 |
| CCOc1cc(C(=S)N2CCOCC2)ccc1OCc1ccccc1 [CBK027466] | 99.1 |
| CCN(C)Cc1cccc(CNc2ncnc3c2cnn3CCC#N)c1 [CBK305959] | 92.2 |
| CCC(C)(NC=O)C(=O)Nc1ccccc1C(=O)O (stereo not shown) [CBK287177] | 97 |
| CCN1/C(=C/C(=C/c2sc3ccccc3[n+]2CCCS(=O)(=O)[O-])OC)Sc2ccccc21 [CBK278203] | 99.7 |
| CCCC(=O)NC[C@H]1CC[C@H](c2nnc(-c3ccsc3)o2)CC1 [CBK283362] | 98.9 |
| COc1cccc(OCC(=O)O/N=C(\N)c2ccncc2)c1 [CBK262592] | 91.6 |
| Cc1cc(C)c2c(OCC(=O)N(C)CC(=O)NC(C)C)nn(C)c2n1 [CBK304931] | 84.1 |
| CCOC(=O)c1c(CN2CCCC2)nc2c3ccccc3ccn12 [CBK267521C] | 107 |
| CCc1nsc(N2CCC(Oc3cccnc3N(C)C)C2)n1 (stereo not shown) [CBK304498] | 110 |
| CCOc1cc(OCC)cc(C(=O)N2CCC3(CC2)CC(=O)c2ccc(OCC)cc2O3)c1 [CBK168014] | 98.8 |
| COCC(=O)NC1CCN(CC2(c3ccc(F)cc3)CCCC2)CC1 [CBK285387] | 95.5 |
| Nc1ncncc1-c1ccc(Cl)cc1 [CBK012407] | 90.9 |
| CC1CCN(CC(CS(=O)(=O)c2ccc([N+](=O)[O-])cc2)N2CCC(C)CC2)CC1 (stereo not shown) [CBK267506] | 86.2 |

| Compound | viability at 28.5 h, 10 µM [%] |
| --- | --- |
| CCCCNS(=O)(=O)c1ccc(OCC(=O)O)cc1 [CBK268550] | 99.1 |
| O=C(O)CCC(=O)N1N=C2C(=Cc3ccco3)CCCC2C1c1ccco1 (stereo not shown) [CBK296069] | 97.9 |
| CCN(CC)C(=O)c1ccccc1NS(=O)(=O)Cc1ccccc1[N+](=O)[O-] [CBK045428] | 99.9 |
| COc1ccc(C(NC(=O)C2CCCN(C(=O)NC(=O)c3ccccc3)C2)c2ccccc2C)cn1 (stereo not shown) [CBK075023] | 90.9 |
| CCNc1nc(-c2ccc(Oc3ccccc3)cc2)cn2ccnc12 [CBK066467] | 94.6 |
| CCCC(=O)Nc1ccccc1NC(=O)c1cccc([N+](=O)[O-])c1C [CBK267398] | 92.1 |
| COc1ccccc1CN(CCN(C)C)C(=O)Cc1c(C)[nH]c(=O)[nH]c1=O [CBK286343] | 94.2 |
| O=[N+]([O-])c1ccc(NCCNCCO)c(Cl)c1 [CBK261006] | 97.5 |
| Cc1cc(COc2nccnc2N2CCN(CCCC#N)CC2)no1 [CBK084198] | 93.5 |
| CS(=O)(=O)c1ccc(CN2CCC3(CCN(Cc4ccccc4)CC3)C2)cc1 [CBK144066T] | 92.2 |
| COC(=O)COc1ccc(C(NC(=O)c2ccccc2)C(Cl)(Cl)Cl)cc1 (stereo not shown) [CBK265437] | 97.8 |
| CN(c1ncc(Br)cc1C(=O)NC1CCCCC1)S(C)(=O)=O [CBK076531] | 111 |
| Cc1nn(C)cc1CN(Cc1cccc(F)c1)CC1CCCO1 (stereo not shown) [CBK283013] | 100 |
| CCOC(=O)c1noc2nc(C)n(Cc3nc(-c4ccccc4)oc3C)c(=O)c12 [CBK294400] | 89.6 |
| O=C(CCC(=O)c1ccc2c(c1)Cc1ccccc1-2)Nc1ccc(C(=O)O)cc1 [CBK268673] | 110 |
| Cc1cc(C(=O)Nc2ccc([C@@H](O)[C@H]3COCC(=O)N3Cc3ccccc3)cc2)n(C)n1 [CBK289669] | 89 |
| O=C(NCc1ccccn1)C(=O)N/N=C/c1ccccc1[N+](=O)[O-] [CBK262204] | 96.4 |
| CCN(CC)CC1CCCN(C(=O)Cn2ccc3ccc(F)cc32)C1 (stereo not shown) [CBK282146] | 87.8 |
| CN(C)C(c1ccccc1)c1nnnn1C1CCCCC1 (stereo not shown) [CBK028032] | 105 |
| CCN(CC)CCOc1cc(=O)oc2ccccc12 [CBK022747C] | 105 |
| O=C1c2cccc3cccc(c23)C(=O)N1CCN1CCN(S(=O)(=O)c2ccccc2[N+](=O)[O-])CC1 [CBK262530] | 97.7 |
| Cc1nonc1NC(=O)CSc1nc2ccccc2[nH]1 [CBK269273] | 101 |

| Compound | viability at 28.5 h, 10 µM [%] |
| --- | --- |
| O=C(CSc1nnc(-c2ccco2)o1)N1CCN(CC(=O)N2CCCC2)CC1 [CBK295136] | 111 |
| COc1ccc(CN2CCN(S(C)(=O)=O)CC2)c(OC)c1OC [CBK074491] | 102 |
| Cc1cccn2c(=O)cc(CN3CCC(c4ccn[nH]4)CC3)nc12 [CBK305951] | 93.2 |
| O=C(c1ccccc1)N1CCC(c2nnc(-c3ccsc3)o2)CC1 [CBK283371] | 88.5 |
| CC(C)NS(=O)(=O)c1ccc(OCC(=O)Nc2ccc3c(c2)OCO3)c(Cl)c1 [CBK267919] | 92.5 |
| Cc1ccccc1CNC(=O)CCc1c(C)nc2nc(N)nn2c1C [CBK304987] | 108 |
| COCCNc1nc(-c2ccc(C(C)=O)s2)ccc1C(=O)N(C)CCN(C)C [CBK105914] | 116 |
| Cc1oc(C2CC2)cc1C(=O)N1CCn2c(nnc2C2CC2)C1 [CBK283687] | 94.9 |
| CC(=O)Nc1ccc(-c2cncc(NC3CCC(O)CC3)n2)cc1 (stereo not shown) [CBK065886] | 93.9 |
| CC1(C)NC(=O)N(CC(O)Cn2c3ccccc3c3ccccc32)C1=O (stereo not shown) [CBK304318] | 86.8 |
| Cc1ncsc1C(=O)NCc1ccc(S(=O)(=O)N2CCCCC2)cc1 [CBK305556] | 89.9 |
| Cn1nc(C(C)(C)C)c2cc(C(=O)N3CCn4nccc43)cnc21 [CBK305466] | 93.3 |
| Cc1ccccc1Cc1cccc(C2CCN(C(=O)c3ccc(F)cc3)CC2)n1 [CBK286140] | 88.4 |
| Nc1nc(C2COc3ccccc3O2)ncc1S(=O)(=O)c1ccc(Cl)cc1 (stereo not shown) [CBK074808] | 96.2 |
| C=C(C)Cn1c(SCC(C)C)nnc1-c1ccccc1OC(F)(F)F [CBK200080] | 97.7 |
| Cc1scnc1CN1CCn2nc(C(O)Cc3ccccc3)cc2C1 (stereo not shown) [CBK307612] | 90.9 |
| CC(=O)N1C[C@H]2CCCN(S(=O)(=O)c3ccc4c(c3)CCC4)[C@H]2C1 [CBK282254] | 87.5 |
| CCCCn1c(S)nc2c(-c3ccccc3)c[nH]c2c1=O [CBK288505] | 96.2 |
| COc1ccc(Br)cc1/C=N/Nc1nc(NCc2ccccc2)nc(N2CCOCC2)n1 [CBK261232] | 92.9 |
| Nc1nc(CN2C(=O)c3ccccc3C2=O)n[nH]1 [CBK266655] | 105 |
| O=C(Cc1cccc2ccccc12)Nc1ccc2oc(-c3ccccc3)nc2c1 [CBK266286] | 96.3 |
| O=C(c1cccc(F)c1)N1CCN(Cc2ccccn2)CC1 [CBK263023] | 88.5 |

| Compound | viability at 28.5 h, 10 µM [%] |
| --- | --- |
| CC(C)c1ccc(C(C)NC(=O)Cn2cccc(C(=O)Nc3ccc(F)cc3)c2=O)cc1 (stereo not shown) [CBK286043] | 89.3 |
| O=C(Nc1ccccc1)Nc1nc(=O)n(-c2ccccc2)s1 [CBK070710] | 93 |
| COc1ccc(-c2cnc(N)c(-c3ccc(C(=O)NCCO)cc3)n2)cn1 [CBK064147] | 95.6 |
| Brc1ccc(-n2cnnn2)cc1 [CBK027696] | 110 |
| CC(=O)Nc1ccc(CNC(=O)CN(C)CC2CCCCO2)cc1 (stereo not shown) [CBK306567] | 89.6 |
| O=c1cc(NCc2ccncc2)c2ccccc2o1 [CBK017259] | 93.5 |
| CSCCN1CCN(c2nccnc2OC2CCCCC2)CC1 [CBK082843T] | 108 |
| O=C(C1CC1)N1CCC(Cn2nc(-c3cccs3)ccc2=O)CC1 [CBK284039] | 101 |
| CCCN1CCN(c2ncc(CNS(=O)(=O)c3ccc(Cl)cc3)cn2)CC1 [CBK010261] | 101 |
| CC(C)c1ccc(S(=O)(=O)Nc2cccnc2)cc1 [CBK043884] | 97.9 |
| CC(C)CN1CCC(NC(=O)c2csc(-c3cnn(C)c3)n2)CC1 [CBK305790] | 97.2 |
| CC1(C)CC(=O)C(C(=S)Nc2ccccc2)=C(NCc2ccccc2)C1 [CBK264498] | 91.6 |
| Cc1cccc(C(C)(C)C)c1NC(=O)NCCc1cccs1 [CBK044530] | 98.9 |
| Clc1ccc2c(c1)NC(c1ccco1)N1CCN=C21 (stereo not shown) [CBK284479] | 84.8 |
| COc1cccc(C(=O)N2CCOC(c3cc(C(=O)NCC(C)C)c4ccccc4n3)C2)c1 (stereo not shown) [CBK285894] | 97.4 |
| COc1ccc(N2CCN(c3cc(C)nc4cc(-c5nccn5C)nn34)CC2)cc1 [CBK286187] | 87.8 |
| COc1ccc(C)cc1S(=O)(=O)Nc1cc(Cl)ccc1C(=O)NCc1ccccc1 [CBK113954] | 85.5 |
| CCn1cc(CN(CC(C)C)C(=O)c2c(C)nc3ccccn23)cn1 [CBK306862] | 97.8 |
| COCC(=O)Nc1nc(OC)cnc1/C=C\c1ccccc1 [CBK145360] | 113 |
| COCCCn1c(=O)[nH]c2ncc(-c3cnc(OC)nc3)nc21 [CBK064618] | 92 |
| CCOC(=O)CN1C(=O)S/C(=C/c2ccc(OCc3ccc(Br)cc3)cc2)C1=O [CBK264686] | 99.1 |
| CCO[C@H]1CN(C)C[C@@H]1NC(=O)c1cccc2c1NCCC2 [CBK307269] | 90.4 |
